Here are results for 10 molecules from patent US6472516B1, “Progestin-regulated gene” (The Garvan Institute of Medical Research, priority 1995, dated 2002).

Marks after values point to notes of the source that are not given here. Numbered stars: 1 amine (or outer) side, 2 acyl side, 3 side chain; on linkers, the order of the positions; unused ones are H or OH. Bridge positions count the residues as written; N and C are the ends. Square brackets hold non-standard residues; d marks the D form. Peptide text beside a SMILES is read from it. I, II: the chains in the order shown. Actinocin(9to1) = Cc1c2oc3c(C)ccc(C(=O)[*:1])c3nc-2c(C(=O)[*:2])c(N)c1=O; NMeV = CN[C@H](C(=O)O)C(C)C; Sar = CNCC(=O)O Where only a bound is given, the exact number is not on record here.

Assay [1] relates to PRG1 mRNA. Nature of the assay: Northern analysis of PRG1 mRNA expression in MDA-MB-231 cells. It counts as cell-based, human. How it is done: (§1) The sources and maintenance of the human breast cancer cell lines used in this study were as described previously (33). 184 and 184B5 normal breast epithelial cells were the kind gift of Dr. M. Stampfer (University of California, Berkley, Calif.) and were maintained in mammary epithelial growth medium (Clonetics, San Diego, Calif.). Tissue culture experiments in serum-free medium were performed as previously described (6, 27). Briefly, T-47D cells were taken from stock cultures and passaged for 6 days in phenol red-free RPMI medium supplemented with 10% charcoal-treated fetal calf serum (FCS). During this time the cells received two changes of medium at 1- to 3-day intervals. The cells were replated into replicate 150 cm^2 flasks in medium containing 10% charcoal-treated FCS and the medium replaced with serum-free medium on the next two days. Serum-free medium was supplemented with 300 nM human transferrin. In experiments involving ORG 2058 the final serum-free medium contained 10 μg/ml (1.7 μM) human insulin. Three days after completion of these pre-treatments growth factor, steroid, steroid antagonist or cycloheximide were added. Control flasks received vehicle to the same final concentration. Cell cycle phase distribution was determined by analytical DNA flow cytometry, as previously described (6, 34).
(§2) Tissue culture experiments in serum-containing medium were performed as previously described (34). The experiment with livial and actinomycin D was as for experiments in serum-containing medium except that the medium contained 5% charcoal-treated FCS. Actinomycin D was added at the same time as livial. The experiment involving “estrogen rescue” was performed as described (30). […]
(§3) Cells harvested from triplicate 150 cm^2 flasks were pooled and RNA extracted by a guanidinium-isothiocyanate-cesium chloride procedure and Northern analysis was performed as previously described with 20 μg of total RNA per lane (6, 11). […] The mRNA abundance was quantified by densitometric analysis of autoradiographs using Molecular Dynamics Densitometer and software (Molecular Dynamics, Sunnyvale, Calif.). […]

Assay [2] concerns PRG1 mRNA. Nature of the assay: Northern analysis of PRG1 mRNA expression in T-47D cells. It counts as cell-based, human. The following applies: for Induction of PRG1 mRNA by mitogen: T-47D growth-arrested by serum deprivation, 3 or 4 h, insulin 1.7 μM, heregulin 5 nM, bFGF 55 pM; for Relative mRNA Expression: relative to cells maintained in serum-free medium. As to the method: as §1
Tissue culture experiments in serum-containing medium were performed as previously described (34). The experiment with livial and actinomycin D was as for experiments in serum-containing medium except that the medium contained 5% charcoal-treated FCS. Actinomycin D was added at the same time as livial. The experiment involving “estrogen rescue” was performed as described (30). Briefly, MCF-7 cells were cultured in medium containing 5% FCS for 2 days. The antiestrogen ICI 182780 (10 nM) was then added to the medium for 48 h. after which the growth-arrested cells were treated with 100 nM 17β-estradiol, also added directly to the medium, resulting in the synchronous re-entry of cells into the cell cycle.
Cells harvested from triplicate 150 cm^2 flasks were pooled and RNA extracted by a guanidinium-isothiocyanate-cesium chloride procedure and Northern analysis was performed as previously described with 20 μg of total RNA per lane (6, 11). The membranes were hybridized overnight at 50° C. with probes labelled with [α-^32P]dCTP (Amersham Australia Pty Ltd, Castle Hill, Australia) using the Random Prime Labelling Kit (Promega, Sydney, Australia). The membranes were washed at a highest stringency of 0.2× SSC (30 mM NaCl. 3 mM sodium citrate [pH 7.0])+ 1% sodiwn dodecyl sulfate at 65° C. and exposed to Kodak X-OMAT or BIOMAX film at −70° C. Human multiple tissue Northern blots (Clontech Laboratories, Inc. Palo Alto, Calif.) were hybridized under conditions recommended by the manufacturer. The mRNA abundance was quantified by densitometric analysis of autoradiographs using Molecular Dynamics Densitometer and software (Molecular Dynamics, Sunnyvale, Calif.). The accuracy of loading was estimated by hybridizing membranes with a [γ-^32P]ATP end-labelled oligonucleotide complementary to 18S rRNA.

Another assay relates to T-47D cells. The note with it: previously reported (refs 32, 54); cited from earlier work.
The test system of assay [3] is PRG1 mRNA. The assay can be described thus: Northern analysis of PRG1 mRNA expression in MCF-7 cells. It counts as cell-based, human. As to the method:
as §1, §2, §3

[4] abbreviates: T-47D, insulin-supplemented serum-free medium, 10 nM.

Regarding `C[C@@H]1C[C@H]2[C@@H]3CCC4=CC(=O)C=C[C@]4(C)[C@@]3(F)[C@@H](O)C[C@]2(C)[C@@]1(O)C(=O)CO` [dexamethasone, 9-fluro-11,17,21-trihydroxy-16-methylpregn-1,4-diene-3,20-dione], in the assay with PRG1 mRNA [1] (MDA-MB-231, 100 nM, 3 h), the “PRG1 mRNA as percent of control levels” value was “approximately 60 % of control”.
Take bFGF: human recombinant bFGF: the “Induction of PRG1 mRNA by mitogen” value in the assay with PRG1 mRNA [2] amounted to 1.9 fold. The “Relative mRNA Expression” value with PRG1 mRNA [2] (T-47D, at 3 h) is recorded as 2.6^† at 3 h. Also, the “Potency as mitogen in stimulating cell cycle progression” value (shortened to “Potency as mitogen”) in the assay with T-47D cells is “equipotent”.
For `C[C@]12CC[C@@H]3c4ccc(O)cc4CC[C@H]3[C@@H]1CC[C@@H]2O` [17β-estradiol], the “Relative mRNA Expression” value with PRG1 mRNA [3] (MCF-7, at 4 h, after ICI 182 780 pre-treatment for 48 h, relative to antiestrogen treated control) is 2.0^‡ at 4 h. In addition, in the assay with PRG1 mRNA [3] (MCF-7 growth-arrested by ICI 182780 (10 nM, 48 h), then 100 nM 17β-estradiol, 4 h), the “Induction of PRG1 mRNA by estrogen rescue” value was found to be 2.0 fold.
In the case of “insulin: human insulin, Actrapid; CSL-Novo”, the “Induction of PRG1 mRNA by mitogen” value with PRG1 mRNA [2] came to 2.8 fold. For the same molecule, the “Relative mRNA Expression” value with PRG1 mRNA [2] (T-47D, at 4 h) is given as 2.8^† at 4 h. For the same molecule, the “Potency as mitogen” value with T-47D cells is recorded as “equipotent”.
Regarding `CC#C[C@]1(O)CC[C@H]2[C@@H]3CCC4=CC(=O)CCC4=C3[C@@H](c3ccc(N(C)C)cc3)C[C@@]21C` [RU 486], the “Effect on PRG1 mRNA levels, compound alone” value in the assay on PRG1 mRNA [2] (T-47D, serum-free medium with insulin, 100 nM, 3 h) is “no effect”.
Take `C[C@@H]1C[C@@H]([C@H](O)CC2CC(=O)NC(=O)C2)C(=O)[C@@H](C)C1` [cycloheximide, Cycloheximide]: the “Effect on PRG1 mRNA, compound alone” value in the assay with PRG1 mRNA [2] (T-47D, cycloheximide 20 μg/ml alone, 3 h) is listed as “increase of PRG1 mRNA to a level similar to that achieved by ORG 2058 alone”. Further, the “Effect on progestin-mediated induction of PRG1 mRNA” value with PRG1 mRNA [2] (T-47D, cycloheximide 20 μg/ml with ORG 2058 10 nM, 3 h) is listed as “failed to block”.
On to heregulin, for which the “Induction of PRG1 mRNA by mitogen” value in the assay with PRG1 mRNA [2] amounted to 2.6 fold. In the assay on PRG1 mRNA [2] (T-47D, at 4 h), the “Relative mRNA Expression” value is 1.9^† at 4 h. Moreover, in the assay on T-47D cells, the “Potency as mitogen” value is “one of the most potent mitogens”.
As for `Cc1c2oc3c(C)ccc(C(=O)N[C@@H]4C(=O)N[C@H](C(C)C)C(=O)N5CCC[C@H]5C(=O)N(C)CC(=O)N(C)[C@@H](C(C)C)C(=O)O[C@@H]4C)c3nc-2c(C(=O)N[C@@H]2C(=O)N[C@H](C(C)C)C(=O)N3CCC[C@H]3C(=O)N(C)CC(=O)N(C)[C@@H](C(C)C)C(=O)O[C@@H]2C)c(N)c1=O` [actinomycin D] (I: T[dV]P[Sar][NMeV] / II: T[dV]P[Sar][NMeV]; ester I:1-I:C, II:1-II:C; linker I:N-II:N via Actinocin(9to1)), the “Effect on progestin induction of PRG1 mRNA” value in the assay with PRG1 mRNA [2] (T-47D, actinomycin D 5 μg/ml with livial 10 nM) was “blocked”.
Turning to `CCC1CC2C3CCC4=CC(=O)CCC4C3CCC2(C)C1C(=O)CO` (stereo not drawn) [ORG 2058, 16α-ethyl-21-hydroxy-19-norpregn-4-en-3,20-dione], the “Superinduction of PRG1 mRNA relative to control” value in the assay with PRG1 mRNA [2] (T-47D, ORG 2058 10 nM in presence of cycloheximide 20 μg/ml, 3 h, experiment of FIG. 8) is reported as 12 fold. In the assay on PRG1 mRNA [2] (setting [4]), the “Time by which PRG1 mRNA had returned to control levels” value is on record as ≤ 12 h and the “Time of maximal PRG1 mRNA induction” value was 3 h. The “Maximal PRG1 mRNA induction relative to time-matched control” value in the assay with PRG1 mRNA [2] (T-47D, insulin-supplemented serum-free medium, 10 nM, 3 h, experiment of FIG. 5) is reported as 4.4 fold. Besides, the “PRG1 mRNA increase above control mRNA levels” value in the assay with PRG1 mRNA [3] (MCF-7 (PR-positive), 5% FCS, 10 nM, 3 h) was “approximately 2 fold”. Also, the “PRG1 mRNA decrease below control mRNA levels” value in the assay with PRG1 mRNA [1] (MDA-MB-231 (PR-negative), 10 nM, 3 h) was “approximately 30%”. Besides, in the assay on PRG1 mRNA [1] (MDA-MB-231, 6 h, ORG 2058 10 nM, dexamethasone 100 nM), the “PRG1 mRNA level at 6 h after the decrease at 3 h (in words)” value is listed as “recovery”.
With `C#C[C@]1(O)CC[C@H]2[C@@H]3[C@H](C)CC4=C(CCC(=O)C4)[C@H]3CC[C@@]21C` [livial, (7α, 17α)-17-hydroxy-7-methyl-19-norpregn-5(10)-en-20-yn-3-one], in the assay on PRG1 mRNA [2] (T-47D, 5% charcoal-treated FCS, 10 nM), the “PRG1 mRNA induction (in words)” value is recorded as “induced”. The “PRG1 mRNA induction in presence of transcription inhibitor” value in the assay on PRG1 mRNA [2] (T-47D, 5% charcoal-treated FCS, livial 10 nM with actinomycin D 5 μg/ml) is “not induced”.
